Reference: patent US20030180295A1, “Angiocidin: a Cys-Ser-Val-Thr-Cys-Gly specific tumor cell adhesion receptor” (Philadelphia Health and Education Corporation, priority 1999, published 2003)
Entries after “also recorded” stand apart in the source; their conditions may differ.

Key:
[1] = target: T1, biotin-angiocidin complex binding to TSP-1 (Homo sapiens, UniProt P55036, INS254GER); test: Biotin-avidin receptor binding assay: competition; details: Example 23, FIGS. 29 and 30
T1 sequence (P55036 with tags, fused parts or gaps INS254GER): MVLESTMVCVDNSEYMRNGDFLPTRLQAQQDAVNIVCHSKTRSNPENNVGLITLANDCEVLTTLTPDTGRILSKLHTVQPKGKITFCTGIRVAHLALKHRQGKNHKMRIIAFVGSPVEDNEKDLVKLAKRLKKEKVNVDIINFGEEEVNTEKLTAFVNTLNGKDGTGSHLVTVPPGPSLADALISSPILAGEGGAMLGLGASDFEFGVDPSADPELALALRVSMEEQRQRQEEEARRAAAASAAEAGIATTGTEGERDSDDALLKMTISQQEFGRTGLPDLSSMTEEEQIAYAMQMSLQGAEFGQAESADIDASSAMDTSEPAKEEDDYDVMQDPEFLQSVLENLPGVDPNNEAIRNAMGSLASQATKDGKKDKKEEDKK
Method: In the following experiments, TSP-1 was covalently bound to a substrate, biotinylated angiocidin was added to the plate, and avidin-peroxidase was added to measure how much biotinylated angiocidin was attached to the TSP-1. The avidin-peroxidase was measured using a spectrophotometer at an absorbance of 450 nm.
Free angiocidin was added to the system to compete with the biotinylated angiocid in. […] Immobilized BSA was used as a negative control.
The TSP-1 peptide Cys-Ser-Val-Thr-Cys-Gly (SEQ ID NO: 1) was added to the system to compete with the TSP-1 on the plate for binding with the biotinylated angiocidin. The scrambled peptide Val-Cys-Thr-Gly-Ser-Cys (SEQ ID NO: 15) was used as a negative control and had no effect.
The avidin-biotin system discussed above was used to evaluate the competitive effect of various peptides on the binding of TSP-1 and angiocidin. […] The scrambled peptide Val-Cys-Thr-Gly-Ser-Cys-Gly (SEQ ID NO: 21) and the d-orientation peptide d-Cys-Ser-Val-Thr-Cys-Gly (SEQ ID NO: 22) were used as negative controls.

[2] = test system: MDA-MB231 human breast carcinoma cells (MB231); test: ALAMAR BLUE cell viability assay; assay type: cell-based; details: 37 μg/ml, 24 hours
Method: (§1) Bovine aortic endothelial cells (BAEC), human umbilical vein endothelial cells (HUVEC), fibroblast cells, A549 human lung carcinoma cells (A549), MDA-MB231 human breast carcinoma cells (MB231), MCF7 human breast carcinoma cells (MCF7) were treated with 37 μg/ml of receptor, or buffer alone, for 24 hours. Viability of the cells was measured using the ALAMAR BLUE™ assay, which measures the capacity of cells to metabolize the ALAMAR BLUE™ dye. The ALAMAR BLUE™ assay (available from Biosource International, Camarillo, Calif.) quantitatively measures the proliferation of cell lines and can establish the relative cytotoxicity of chemical agents. The assay incorporates a fluorometric/colorimetric growth indicator based on detection of metabolic activity. The system incorporates an oxidation-reduction (redox) indicator that both fluoresces and changes color in response to chemical reduction of growth medium resulting from cell growth. This causes the redox indicator to change from its oxidized, non-fluorescent, blue form to its reduced, fluorescent, red form. Data can be collected using either fluorescence-based instrumentation (530-560 nm excitation wavelength and 590 nm emission wavelength) or absorbance-based instrumentation (570 nm and 600 nm).

fibroblast cells = test: ALAMAR BLUE cell viability assay; assay type: cell-based; details: 37 μg/ml, 24 hours
Method: as §1

[3] = test system: A549 human lung carcinoma cells (A549); test: ALAMAR BLUE cell viability assay; assay type: cell-based; details: 37 μg/ml, 24 hours
Method: as §1

[4] = test system: MCF7 human breast carcinoma cells (MCF7); test: ALAMAR BLUE cell viability assay; assay type: cell-based; details: 37 μg/ml, 24 hours
Method: as §1

[5] = test system: Bovine aortic endothelial cells (BAEC); test: Morphology of BAEC monolayer cultures; assay type: cell-based; details: 0.37, 3.7, 37 μg/ml, 24 hours, serum-free medium with 1% BSA
Method: In this experiment, BAEC cells in monolayer cultures were plated for 24 hours in serum-free medium containing 1% BSA in the presence of increasing concentrations of angiocidin (control=none, 0.37 μg/ml, 3.7 μg/ml, 37 μg/ml). Hoffman interference microscopy (100×) was used to photograph the cells.

BAEC = test: Adhesion of BAEC to a substrate; assay type: cell-based, bovine; details: cells pretreated with 37 μg/ml, 30 minutes
Method: This example evaluates the effect of angiocidin on adhesion of BAEC to a substrate. Cells in the treatment group were pretreated with angiocidin (37 μg/ml). Cells in the control group were not pretreated. Cells (50,000) were immediately plated on microtiter wells coated with 2 μg of either fibronectin, TSP-1, or BSA. Fibronectin is a strong extracellular matrix protein that attracts BAEC and serves as a positive control, whereas BSA is not an adhesion protein and serves as a negative control. After 30 minutes non-adherent cells were aspirated, wells washed with PBS, fixed with 2.5% glutaraldehyde, stained with 2% Giemsa, and the number of adherent cells per 1 mm^2 counted.

[6] = test system: Bovine Smooth Muscle Cells (BSM); test: ALAMAR BLUE cell viability assay; assay type: cell-based; details: 0 to 37 μg/ml, 24 hours
Method: as §1, with “This causes the redox indicator to change from its oxidized, non-fluorescent, blue form to its reduced, fluorescent, red form.” left out
BAEC and BSM cells were treated with increasing concentrations of angiocidin (0, 0.625, 1.25, 2.5, 5, 15, 26 and 37 μg/ml) for 24 hours. Cell viability was measured using the ALAMAR BLUE Tm assay. […]

[7] = test system: Bovine aortic endothelial cells (BAEC); test: ALAMAR BLUE cell viability assay; assay type: cell-based
Method: as §1
BAEC and BSM cells were treated with increasing concentrations of angiocidin (0, 0.625, 1.25, 2.5, 5, 15, 26 and 37 μg/ml) for 24 hours. Cell viability was measured using the ALAMAR BLUE Tm assay. […] In contrast, BSM cells are unaffected.
The methods of Example 21 were followed, except BAEC cells were used. Additionally, TSP-1 was added at both 20 μg/ml and 5 μg/ml.
As discussed in Example 19 above, angiocidin was added to BAEC cells. Fragments of angiocidin were added as well. […] GST was used as a negative control. V36-R42, the active site of the antisecretory factor, had no effect, illustrating that angiocidin plays a different role from antisecretory factor.
Bovine aortic endothelial cells (BAEC) were cultured overnight in serum-free media containing either 37 μg/ml his-tagged angiocidin or his-tagged GST. Both angiocidin and GST were expressed in bacteria transformed with the pTrcHisA expression vector and purified on nickel affinity chromatography under non-denaturing conditions. Viability was measured by the ALAMAR BLUE™ assay.
This study examined the effect of anti-angiocidin antibody on angiocidin-mediated inhibition of BAEC viability. BAEC were cultured overnight in serum-free media containing either 5 μg/ml angiocidin, 5 μg/ml angiocidin plus 100 μg/ml control IgG, or 5 μg/ml angiocidin plus 100 μg/ml anti-angiocidin IgG. Viability was measured using the ALAMAR BLUE™ assay, described above.
The endothelial cells (BAEC) were incubated overnight 37 μg/ml of the angiocidin, fragments, and GST. Viability was measured using the ALAMAR BLUE™ assay.

angiocidin: Cys-Ser-Val-Thr-Cys-Gly (SEQ ID NO: 1)-specific thrombospondin (TSP-1) receptor protein; recombinant form of SEQ ID NO: 2 used in the Examples
competition of biotin-angiocidin binding to TSP-1 [1]: the binding decreased linearly | cell viability [2]: No significant difference | cell viability (fibroblast cells): No significant difference | cell viability [3]: No significant difference | cell viability [4]: No significant difference | cell morphology [5]: elongated, detached from the plate, aggregated, and died | adhesion of BAEC (BAEC; TSP-1 coated wells): significantly reduced the adhesion of BAEC to the TSP-1 coated plates | adhesion of BAEC (BAEC; fibronectin coated wells): remained the same | cell viability [6]: unaffected | cell viability ([7]; 0 to 37 μg/ml, 24 hours): dose dependent inhibition of BAEC cell viability; also recorded: decreases viability of BAEC cells | decrease of cell viability ([7]; 37 μg/ml, 24 hours): 70-80% | cell viability, angiocidin and fragments ([7]; Example 27, FIG. 34): inhibited cell viability | cell viability, his-tagged proteins ([7]; overnight, serum-free media, purified under non-denaturing conditions): dose-dependent effect on cell viability
